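Interpolation was linear, between the two tested concentrations surrounding the appropriate level; five concentrations were tested over 48 hours in 96-well plates. GI50: concentration for 50% inhibition of growth.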 Calls of active or inactive are those of the source. Cut-off read from the data, not from the text of the source: active = GI50 up to about 1.1 µM and inactive = higher.
Legend:
Experiment in all cases: NCI anticancer screen, dose series, 48 h
HCT-116 = tested on: HCT-116
HOP-62 = tested on: HOP-62
PC-3 = tested on: PC-3
SK-MEL-28 = tested on: SK-MEL-28
SNB-75 = tested on: SNB-75
RXF 393 = tested on: RXF 393
MDA-MB-231 = tested on: MDA-MB-231
NCI-H460 = tested on: NCI-H460
786-0 = tested on: 786-0
SNB-19 = tested on: SNB-19
NCI-H23 = tested on: NCI-H23
MOLT-4 = tested on: MOLT-4
CCRF-CEM = tested on: CCRF-CEM
IGROV-1 = tested on: IGROV-1
UO-31 = tested on: UO-31
UACC-62 = tested on: UACC-62
EKVX = tested on: EKVX
OVCAR-8 = tested on: OVCAR-8
ACHN = tested on: ACHN
DU-145 = tested on: DU-145

Measured: GI50

CC(C)C1(C)N=C(C(F)(F)F)c2cc(C(=O)C(F)(F)F)c3ccccc3c2N1 (stereo not given)
inactive: HCT-116 2.94 µM | HOP-62 4.9 µM | PC-3 2.52 µM | SK-MEL-28 5.22 µM | SNB-75 2.31 µM | RXF 393 2.71 µM | MDA-MB-231 2.73 µM | NCI-H460 4.41 µM | 786-0 3.7 µM | SNB-19 4.14 µM | NCI-H23 2.77 µM | MOLT-4 3.07 µM | CCRF-CEM 15.8 µM | IGROV-1 1.16 µM | UO-31 5.9 µM | UACC-62 4.33 µM | EKVX 4.91 µM | OVCAR-8 4.17 µM | ACHN 3.53 µM | DU-145 3.71 µM

NC(=O)CC(N)c1nnn[nH]1 (stereo not given)
inactive: HCT-116 > 100 µM | HOP-62 > 100 µM | PC-3 > 100 µM | SK-MEL-28 > 100 µM | SNB-75 > 100 µM | RXF 393 > 100 µM | MDA-MB-231 > 100 µM | NCI-H460 > 100 µM | 786-0 > 100 µM | SNB-19 > 100 µM | NCI-H23 > 100 µM | MOLT-4 > 100 µM | CCRF-CEM > 100 µM | IGROV-1 > 100 µM | UO-31 > 100 µM | UACC-62 > 100 µM | EKVX > 100 µM | OVCAR-8 > 100 µM | ACHN > 100 µM | DU-145 > 100 µM

O=C(/C=C1\Nc2ccc([N+](=O)[O-])cc2N\C1=C/C(=O)c1ccc(F)cc1)c1ccc(F)cc1
inactive: HCT-116 32.5 µM | HOP-62 7.35 µM | PC-3 > 100 µM | SK-MEL-28 > 100 µM | SNB-75 15.7 µM | RXF 393 17.9 µM | MDA-MB-231 16 µM | NCI-H460 46.3 µM | 786-0 12.9 µM | SNB-19 23.1 µM | NCI-H23 19.9 µM | MOLT-4 17.6 µM | CCRF-CEM 8.81 µM | IGROV-1 40 µM | UO-31 > 100 µM | UACC-62 29.4 µM | EKVX 45.9 µM | OVCAR-8 > 100 µM | ACHN 13.9 µM | DU-145 > 100 µM
